Holding throughout (type): cell-based, human
In test [1] the test system is IL-6. Kind of test: LPS-induced IL-6 secretion from isolated monocytes (MSD). The conditions noted are these: overnight (~17 hours) 1000 nM lenalidomide, 100 nM pomalidomide, 10 nM iberdomide or 1 nM Compound 1; LPS 4 hours. Here is the method:
Monocytes from healthy volunteers were seeded at a concentration of 1×10^6 cells/ml and treated with the indicated concentration of IMiD/CELMoD agents overnight (~17 hours). The next morning, the monocytes were incubated with the indicated concentration of LPS for 4 hours, before IL-6 levels in the supernatant were assessed using an MSD assay.
eripheral blood mononuclear cells (PBMCs) were isolated from the blood of four healthy human donors by Ficoll cell separation, and then monocytes were isolated from these PBMCs by negative selection. The enriched monocytes were seeded at a concentration of 1×10^6 cells/ml and incubated overnight (~17 hours) with 1000 nM lenalidomide, 100 nM pomalidomide, 10 nM iberdomide or 1 nM Compound 1, or control DMSO (0.001%), before stimulation with various concentrations of LPS for IL-6 secretion.
After 4 hours, the cell culture was spun down at 300 g for 5 minutes to remove cells, and the supernatant was subjected to Meso Scale Discovery (MSD) analysis to quantify secreted IL-6.

The test system of another test is NCI-H929 cells. Kind of test: CC-93269 mediated cytotoxicity assay with chronically stimulated T-cells, NCI-H929 target cells (IncuCyte). The conditions noted are these: anti-CD3/CD28 7 days with 100 nM pomalidomide, 10 nM iberdomide or 1 nM CC-92480; CC-93269 47 pM; E:T 1:4. As for the experimental part:
(§1) Cell growth kinetics of A) NCI-H929 and B) OPM-2 cells in CC-93269 (47 pM) cytotoxicity assays on the IncuCyte® S3 Live-Cell Analysis System. Healthy donor T-cells were used as effector cells with or without chronic stimulation with anti-CD3/CD28 (7 days) in the presence of DMSO or CM agents (100 nM Pomalidomide, 10 nM CC-220 or 1 nM CC-92480). T-cells and NCI-H929 cells were co-cultured at E:T ratios of 1:4 (NCI-H929) or 1:2 (OPM-2). […] In contrast, prior exposure to CM agents prevented functional TBMS cell exhaustion and CC-93269 activity was similar or better to those observed with freshly thawed T-cells. Values shown represent the mean ± standard deviation of AUC values of 2-3 replicates from the same experiment.
(§2) To evaluate the effects of Cereblon modulating (CM) agents on T-cell function after chronic stimulation (i.e. mimicking T cell exhaustion), CD3+ enriched healthy donor T-cells were stimulated with anti-CD3/CD28 in the presence of DMSO (control), 100 nM pomalidomide, 10 nM iberdomide (CC-220) or 1 nM Compound 1 (CC-92480) for 7 days. Prolonged and repetitive anti-CD3/CD28 stimulation of T-cells results in functional T-cell exhaustion in vitro.
(§3) The chronically stimulated T-cells were then used in CC-93269 mediated cytotoxicity assays with NCI-H929 or OPM-2 multiple myeloma (MM) target cells. The T-cells were washed to remove compounds, and mixed with fluorescently labelled MM cell lines (NCI-H929, OPM-2) at optimized effector-to-target (E:T) ratios (1:2 or 1:4) in the presence of fixed concentrations of CC-93269 (47 pM). Freshly thawed T-cells (i.e. non-exhausted T-cells) from the same donor were used as control effector cells. In this experimental cytotoxicity assay setup, the number of target cells was continuously monitored using the IncuCyte® S3 Live-Cell Analysis System for a minimum of 10 days. Cell culture supernatants were taken from wells from subsequent CC-93269 mediated cytotoxicity assays at 3 days after mixing with MM target cells. CD3+ T cells from 2 or 3 independent healthy donors were tested for each MM cell line.

Another test has as its system OPM-2 cells. Briefly: CC-93269 mediated cytotoxicity assay with chronically stimulated T-cells, OPM-2 target cells (IncuCyte). The note with it: anti-CD3/CD28 7 days with 100 nM pomalidomide, 10 nM iberdomide or 1 nM CC-92480; CC-93269 47 pM; E:T 1:2. As for the experimental part: as §1, §2, §3
Test [2] has as its system IL-6. Kind of test: LPS-stimulated PBMC cytokine production, multiplex cytokine analysis: IL-6. The note with it: Homo sapiens, PBMC, PBMC 2×10^6 cells/ml, compound 1 hour, then 1 ng/ml LPS 18 hours. Here is the method: (§4) Peripheral blood mononuclear cells (PBMCs) were isolated from the blood of healthy human donors by Ficoll cell separation. […] Supernatant samples were subjected to multiplex cytokine analysis (Luminex IS100 instrument) to quantify secreted levels of IL-6, IL-8, IL1-beta (IL-1β), GM-CSF, MDC, MIP-1alpha (MIP-1α), MIP-1beta (MIP-1β) and TNF-alpha (TNF-α) (see e.g. FIGS. 7A-C). IC50 (half maximal inhibitory concentration) values were calculated to measure the potency of each IMiD compound in inhibiting LPS-stimulated secretion of each cytokine (see Table 25).

Another test relates to IL-1β. Briefly: LPS-stimulated PBMC cytokine production, multiplex cytokine analysis: IL-1β. The note with it: Homo sapiens, PBMC, PBMC 2×10^6 cells/ml, compound 1 hour, then 1 ng/ml LPS 18 hours. Here is the method: as §4
For another test, the system named is GM-CSF. Kind of test: LPS-stimulated PBMC cytokine production, multiplex cytokine analysis: GM-CSF. The note with it: Homo sapiens, PBMC, PBMC 2×10^6 cells/ml, compound 1 hour, then 1 ng/ml LPS 18 hours. As for the experimental part:
as §4

A further test has as its system MIP-1β. Kind of test: LPS-stimulated PBMC cytokine production, multiplex cytokine analysis: MIP-1β. The note with it: Homo sapiens; PBMC 2×10^6 cells/ml, compound 1 hour, then 1 ng/ml LPS 18 hours. Here is the method:
as §4

Test [3] has as its system IL-6, IL-8, IL-1β, GM-CSF, MDC, MIP-1α, MIP-1β and TNF-α. Kind of test: LPS-induced secretion of proinflammatory cytokines from PBMCs (whole multiplex panel, result in words). The note with it: pre-treatment 1 hour, 1 ng/ml LPS 18 hours. As for the experimental part: Peripheral blood mononuclear cells (PBMCs) from healthy volunteers were seeded at a concentration of 2×10^6 cells/ml and treated with the indicated concentrations of IMiD compounds or control DMSO (0.25%) for 1 hour, before stimulation with 1 ng/ml LPS. After 18 hours, proinflammatory cytokine levels in the supernatant were assessed by multiplex cytokine analysis.
Peripheral blood mononuclear cells (PBMCs) were isolated from the blood of healthy human donors by Ficoll cell separation. The PBMCs were seeded at a concentration of 2×10^6 cells/ml and treated for 1 hour at 37° C. with various concentrations of IMiD compounds or control DMSO (0.25%), before stimulation with 1 ng/ml LPS for 18 hours at 37° C.
Supernatant samples were subjected to multiplex cytokine analysis (Luminex IS100 instrument) to quantify secreted levels of IL-6, IL-8, IL1-beta (IL-1β), GM-CSF, MDC, MIP-1alpha (MIP-1α), MIP-1beta (MIP-1β) and TNF-alpha (TNF-α) (see e.g. FIGS. 7A-C).

The structures appear in SMILES notation. Bounds are passed on as bounds.

Turning to `N#Cc1ccc(N2CCN(Cc3ccc(COc4cccc5c4CN(C4CCC(=O)NC4=O)C5=O)cc3)CC2)c(F)c1` (stereo not drawn) [Compound 1, 4-(4-(4-(((2-(2,6-dioxopiperidin-3-yl)-1-oxoisoindolin-4-yl)oxy)methyl)benzyl)piperazin-l-yl)-3-fluorobenzonitrile], the “LPS-induced IL-6 secretion from monocytes” value (from here on “LPS-induced IL-6 secretion”) in the test on IL-6 [1] was “diminished”. Moreover, in the test on NCI-H929 cells, the “cytolytic function of chronically stimulated T-cells in CC-93269-directed killing of NCI-H929 cells” value (“cytolytic function … of NCI-H929 cells” for short) is listed as “beneficial effects on the cytolytic function of T-cells”. In the test with OPM-2 cells, the “cytolytic function of chronically stimulated T-cells in CC-93269-directed killing of OPM-2 cells” value (“cytolytic function … of OPM-2 cells” for short) is “beneficial effects on the cytolytic function of T-cells”.

As to `O=C1CC[C@H](N2Cc3c(OCc4ccc(CN5CCOCC5)cc4)cccc3C2=O)C(=O)N1` [Iberdomide, (S)-3-(4-((4-(morpholinomethyl)benzyl)oxy)-1-oxoisoindolin-2-yl)piperidine-2,6-dione], the IC50 with IL-6 [2] is 0.0038 µM; in the test on IL-1β, 0.00046 µM; in the test with GM-CSF, 0.0022 µM; in the test on MIP-1β, greater than 10 µM. The “LPS-induced secretion of proinflammatory cytokines from PBMCs (effect in words)” value (from here on “LPS-induced secretion”) in test [3] is “inhibited”. In addition, the “LPS-induced IL-6 secretion” value in the test with IL-6 [1] is given as “diminished”. Also, the “cytolytic function … of NCI-H929 cells” value in the test on NCI-H929 cells is recorded as “beneficial effects on the cytolytic function of T-cells”. The “cytolytic function … of OPM-2 cells” value with OPM-2 cells is given as “beneficial effects on the cytolytic function of T-cells”.

Regarding `Nc1cccc2c1CN(C1CCC(=O)NC1=O)C2=O` (stereo not shown) [Lenalidomide, 3-(4-amino-1-oxo-2,3-dihydro-1H-isoindol-2-yl) piperidine-2,6-dione], the IC50 in the test with IL-6 [2] was 1.2 µM; with IL-1β, 0.39 µM; in the test with GM-CSF, greater than 10 µM; in the test on MIP-1β, greater than 10 µM. Further, the “LPS-induced secretion” value in test [3] was “inhibited”. Further, in the test on IL-6 [1], the “LPS-induced IL-6 secretion” value was “diminished”.

Regarding `Nc1cccc2c1C(=O)N(C1CCC(=O)NC1=O)C2=O` (stereo not shown) [Pomalidomide, 4-amino-2-(2,6-dioxopiperidine-3-yl)isoindoline-1,3-dione], the IC50 in the test with IL-6 [2] was 0.059 µM; in the test on IL-1β it was 0.047 µM; in the test on GM-CSF, 1.5 µM; with MIP-1β, greater than 10 µM. In test [3], the “LPS-induced secretion” value is “inhibited”. Further, the “LPS-induced IL-6 secretion” value with IL-6 [1] is on record as “diminished”. For the same compound, the “cytolytic function … of NCI-H929 cells” value with NCI-H929 cells is recorded as “beneficial effects on the cytolytic function of T-cells”. In the test with OPM-2 cells, the “cytolytic function … of OPM-2 cells” value is “beneficial effects on the cytolytic function of T-cells”.

The term IC50 denotes the midpoint of a concentration-inhibition curve. Higher therefore signals a need for much substance.

Values taken from patent US20230172923A1, “METHODS OF TREATING CYTOKINE-RELATED ADVERSE EVENTS” (BRISTOL-MYERS SQUIBB COMPANY, priority 2020, published 2023).
